Results as given in paper PMC2633461, “Porcine sclera as a model of human sclera for in vitro transport experiments: histology, SEM, and comparative permeability” (Molecular Vision, 2009).
Read-outs that look alike come from different tables or passages of the source.

Experiments:
[1] = cited from earlier work
Source text: Regardless of the nature of this interaction, we have estimated that the affinity of insulin for the sclera was the same for porcine and human tissues. […] These values (not statistically different between them, p=0.176) indicate a similar behavior of the two tissues toward insulin and also confirm that insulin has an effective affinity for the sclera. In fact, even if the absolute value of the par ...

[2] = cited from earlier work; remark: listed apart in the source
[3] = cited from earlier work; remark: listed apart in the source
[4] = Protocol: Human corneal-scleral rims, which were discarded following harvesting of the corneal button (Regional Cornea Bank, Bologna, Italy), were frozen in liquid nitrogen and used within 15 days of explantation.
(§1) Permeation experiments were performed in Franz-type diffusion cells with an area of 0.2 cm^2 for human sclera and 0.6 cm^2 for porcine sclera.
(§2) To reduce edge damage, a thin layer of silicone lubricant was applied to the glass surface, and the minimum force necessary to keep the cell sealed was applied.
(§3) The receptor compartment contained 4 ml of 25 mM HEPES buffer (pH 7.4) added with 0.9% NaCl, kept at 37 °C, and magnetically stirred. […] At predetermined time intervals, the receptor solution was sampled for the determination of drug permeated.
(§4) The transscleral flux, i.e., the amount of drug that crosses 1 cm^2 of sclera in 1 h (J, µg/cm^2h) was calculated as the slope of the regression line at the steady-state while the lag time was the intercept of the regression line on the x-axis. The permeability coefficient (P, cm/s) was calculated as J/Cv where Cv represents the concentration of the donor solution.
(§5) Experiments performed with human sclera were replicated three to four times while those performed on porcine sclera were replicated five to seven times. All the experiments were performed using previously frozen tissues, and acetaminophen permeability was tested also through fresh pig sclera.
(§6) Acetaminophen and insulin were analyzed by HPLC with a Perkin-Elmer instrument (Norwalk, CT), which is made of an isocratic pump LC250 an UV detector LC290, and the Perkin Elmer Turbochrom Workstation software.
(§7) Acetaminophen was analyzed using a C18 Novapak® column (150×3.9 mm; Waters, Milford, MA) and a mobile phase composed of 92% (v/v) 10 mM sodium acetate pH 4 and 8% (v/v) acetonitrile, which was pumped at 1 ml/min. The detector was set at 254 nm.
(§8) Insulin was analyzed using a C18 Symmetry300® column (250×4.6 mm; Waters) at 40 °C and a mobile phase composed of 73% (v/v) aqueous phase and 27% (v/v) acetonitrile, which was pumped at 1 ml/min. The aqueous phase contained anhydrous sodium sulfate 28.4 g/l and phosphoric acid 2.7 ml/l and was adjusted at pH 2.3 with ethanolamine. The detector was set at 214 nm.
(§9) The excitation and emission λ were 490 and 520 nm, respectively.

[5] = remark: listed apart in the source
Protocol: Porcine globes were obtained from pigs (Large White, Landrance, Duroc; 10–11 months) that ranged in weight 145–190 kg and came from a local slaughterhouse. Porcine eyes were either used within 24 h of explantation or frozen at −80 °C until use. After thawing, the adherent muscle tissue was removed from the eye bulb, and the anterior segment of the eye was circumferentially cut behind the limbus. The eye was then cut into two halves, the vitreous was removed, and the anterior sclera was used for permeation experiments after the removal of the underling tissues using a cotton swab. The frozen tissues were used within three months of explantation.
as §1, §2, §3, §4, §5, §6, §7, §8, §9

[6] = Affinity of insulin for scleral tissue: partition coefficient, human sclera / aqueous solution; format: in vitro ADME; details: insulin about 100 µg/ml in HEPES pH 7.4 with EDTA and lysine, 0.4 ml on 50-100 mg tissue, 3 h, room temperature, HPLC, mean±SEM, n at least 6
Protocol: (§10) Affinity of insulin for scleral tissue was estimated by measuring its partition coefficient between human or porcine sclera and an aqueous solution at pH 7.4. Insulin was dissolved in the aqueous vehicle that was used as donor for the permeation experiments at a concentration of about 100 µg/ml. This solution (0.4 ml) was added to a previously weighed amount of human or porcine sclera (50–100 mg) in a 2.0 ml vial. The insulin solution and the scleral tissues were incubated at room temperature for 3 h. The solution was then filtered (regenerated cellulose, 0.45 µm pore size) and analyzed by HPLC for the determination of the final insulin concentration in the water phase [Wf]. The insulin concentration [S] in the sclera after the incubation period was calculated as:
(§11) [S]=[Wi] x VW - [Wf] x VW/VS
(§12) where [Wi] is the initial concentration of insulin in the aqueous phase, [Wf] is the concentration of insulin in the aqueous phase after the incubation period, VW is the volume of the aqueous phase (0.4 ml), and VS is the volume of the sclera, which was estimated by its weight and by considering the scleral density to be equal to 1 g/ml.
(§13) The partition coefficient (Ks/w) was then calculated as: […]
(§14) Each experiment was replicated at least six times.

[7] = Affinity of insulin for scleral tissue: partition coefficient, porcine sclera / aqueous solution; format: in vitro ADME, pig; details: insulin about 100 µg/ml in HEPES pH 7.4 with EDTA and lysine, 0.4 ml on 50-100 mg tissue, 3 h, room temperature, HPLC, mean±SEM, n at least 6
Protocol: as §10, §11, §12, §13, §14

[8] = no reference given; cited from earlier work
Protocol: The permeability was evaluated using three model compounds. […] Insulin has been chosen as a model protein. It has a molecular weight of 5,734 Da, a molecular radius of the monomeric form of 1.13 nm or 2.0 nm, and an isoelectric point of about 5.4. […] Permeation experiment ...

[9] = cited from earlier work; remark: listed apart in the source
[10] = neutral molecules of different lipophilicity, rhodamine 6G electrically charged at the pH of the experiment

OC[C@@H](O)[C@@H](O)[C@H](O)[C@H](O)CO [mannitol]
Partition coefficient sclera (literature) [1, 10]: 0.005

Insulin from bovine pancreas [listing 1 of 2 here]
Molecular radius of the monomeric form [2]: 1.13 nm | Molecular radius (dimers/hexamers in solution) [3]: 2.5 nm

CC/N=c1\cc2oc3cc(NCC)c(C)cc3c(-c3ccccc3C(=O)OCC)c-2cc1C [rhodamine 6G]
Partition coefficient sclera (literature) [1, 10]: high affinity

Insulin from bovine pancreas [listing 2 of 2 here]
Flux ([4]; human sclera, previously frozen, Franz-type cell 0.2 cm^2, donor 4.9 mg/ml acetaminophen, 1 mg/ml FD-150 or 1 mg/ml insulin in 25 mM HEPES pH 7.4, receptor HEPES pH 7.4 + 0.9% NaCl (0.3% BSA for insulin), 37 °C, slope at steady state, HPLC-UV (FD-150 fluorescence), mean±SEM, n = 3-4, SEM): 6.93±1.14 µg/cm^2h | P (permeability coefficient) ([4]; human sclera, previously frozen, Franz-type cell 0.2 cm^2, donor pH 7.4 HEPES, 37 °C, P = J/Cv, mean±SEM, n = 3-4): 1.93±0.32 cm/s x10^−6 | Lag-time ([4]; human sclera, previously frozen, intercept of the regression line on the x-axis, donor pH 7.4, 37 °C, mean±SEM, n = 3-4, SEM): 71 ± 6 min | DK (diffusion coefficient x partition coefficient) ([4]; human sclera, from P = DK/H with H = tissue thickness (0.59 mm), mean±SEM, SEM): 0.11±0.02 cm^2/s x10^−6 | Flux through human sclera relative to pig sclera ([4]; ratio human / pig sclera flux): 2 times | Flux ([5]; porcine sclera, previously frozen, Franz-type cell 0.6 cm^2, donor 4.9 mg/ml acetaminophen, 1 mg/ml FD-150 or 1 mg/ml insulin in 25 mM HEPES pH 7.4, receptor HEPES pH 7.4 + 0.9% NaCl (0.3% BSA for insulin), 37 °C, slope at steady state, HPLC-UV (FD-150 fluorescence), mean±SEM, n = 5-7, SEM): 3.74±2.10 µg/cm^2h | Lag-time ([5]; porcine sclera, previously frozen, intercept of the regression line on the x-axis, donor pH 7.4, 37 °C, mean±SEM, n = 5-7, SEM): 198 ± 23 min | DK (diffusion coefficient x partition coefficient) ([5]; porcine sclera, from P = DK/H with H = tissue thickness (1.25 mm), mean±SEM, SEM): 0.11±0.05 cm^2/s x10^−6 | Partition coefficient (Ks/w) between sclera and donor solution [6]: 10.3±1.2 | Partition coefficient (Ks/w) between sclera and donor solution [7]: 7.0±1.1 | isoelectric point [8]: about 5.4

CC(=O)Nc1ccc(O)cc1 [Acetaminophen, acetaminophen]
Molecular radius [9]: 0.36 nm | Flux through human sclera relative to pig sclera [4]: 2 times | DK (diffusion coefficient x partition coefficient) ([4]; SEM): 2.05±0.18 cm^2/s x10^−6 | Lag-time ([4]; pH 7.4): no lag time was detectable | P (permeability coefficient) ([4]; pH 7.4): 34.9±3.0 cm/s x10^−6 | Permeability coefficient across human sclera ([4]; pH 7.4): 3.49 [±0.3] x10^-5 cm/s | DK (diffusion coefficient x partition coefficient) ([5]; SEM): 1.95±0.26 cm^2/s x10^−6 | Effect of freezing on tissue permeability (fresh vs previously frozen porcine sclera) ([5]; pH 7.4): did not have any effect on tissue permeability | P (permeability coefficient) ([5]; pH 7.4): 15.6±2.1 cm/s x10^−6 | Lag-time ([5]; pH 7.4, SEM): 35 ± 2 min

CCCC1O[C@@H]2C[C@H]3[C@@H]4CCC5=CC(=O)C=C[C@]5(C)[C@H]4[C@@H](O)C[C@]3(C)[C@]2(C(=O)CO)O1 (stereo partly shown) [budesonide]
Partition coefficient sclera (literature) [1, 10]: 1.2

Cc1ccc(-c2cc(C(F)(F)F)nn2-c2ccc(S(N)(=O)=O)cc2)cc1 [celecoxib]
Partition coefficient sclera (literature) [1, 10]: 1.4

OC[C@H]1O[C@@](CO)(O[C@H]2O[C@H](CO)[C@@H](O)[C@H](O)[C@H]2O)[C@@H](O)[C@@H]1O [sucrose]
Partition coefficient sclera (literature) [1]: 0.6
